# Test results: patent publication US20230022488A1, “Laundry Composition” (FIRMENICH SA, priority 2019, published 2023)
# Tested on: panelist
# Assay: Odor threshold concentration (Log T / Log ODT) by gas chromatograph with sniff port
# Parameters: species or system human
# Method: “High impact perfume raw materials” should be understood as perfume raw materials having a Log T<−4. The odor threshold concentration of a chemical compound is determined in part by its shape, polarity, partial charges and molecular mass. For convenience, the threshold concentration is presented as the common logarithm of the threshold concentration, i.e., Log [Threshold] (“Log T”).
# The odor threshold concentration of a perfuming compound is determined by using a gas chromatograph (“GC”). Specifically, the gas chromatograph is calibrated to determine the exact volume of the perfume oil ingredient injected by the syringe, the precise split ratio, and the hydrocarbon response using a hydrocarbon standard of known concentration and chain-length distribution. The air flow rate is accurately measured and, assuming the duration of a human inhalation to last 12 seconds, the sampled volume is calculated. […] To determine the threshold concentration, solutions are delivered to the sniff port at the back-calculated concentration. A panelist sniffs the GC effluent and identifies the retention time when odor is noticed. The average across all panelists determines the odor threshold concentration of the perfuming compound. The determination of odor threshold is described in more detail in C.
# [1] = ingredient of Perfume oil C (Table 5)
# [2] = ingredient of Perfume oil A (Table 1)
# [3] = ingredient of Perfume oil B (Table 3)
# [4] = ingredient of Perfume oil D (Table 7)
Molecule,Log ODT [1],Log ODT [2],Log ODT [3],Log ODT [4]
1-OXA-12-CYCLOHEXADECEN-2-ONE (A) + 1-OXA-13-CYCLOHEXADECEN-2-ONE (B),>−4,–,–,–
2-METHYLBUTYL SALICYLATE (A) + PENTYL SALICYLATE (B),–,>−4,–,–
"3,5,6-TRIMETHYL-3-CYCLOHEXENE-1-CARBALDEHYDE (A) + 2,4,6-TRIMETHYL-3-CYCLOHEXENE-1-CARBALDEHYDE (B)",>−4,–,–,–
"3,7-DIMETHYL-2,6-NONADIENENITRILE (A) + 3,7-DIMETHYL-3,6-NONADIENENITRILE (B)",>−4,–,–,–
"3-(4-ETHYLPHENYL)-2,2-DIMETHYLPROPANAL (A) + 3-(2-ETHYLPHENYL)-2,2-DIMETHYLPROPANAL (B)",–,–,>−4,–
10-UNDECENAL (A) + (9E)-9-UNDECENAL (B) + (9Z)-9-UNDECENAL (C),<−4,–,<−4,–
CC(C)c1cccc(C(C)CC=O)c1 (racemic) [(+−)-3-(3-ISOPROPYL-1-PHENYL)BUTANAL],–,–,<−4,–
"CCCCC[C@H]1C(=O)CC[C@@H]1CC(=O)OC (racemic) [METHYL 2-((1RS,2RS)-3-OXO-2-PENTYLCYCLOPENTYL) ACETATE]",>−4,>−4,–,–
"c1ccc(Oc2ccccc2)cc1 [1,1′-OXYDIBENZENE]",–,>−4,–,–
"(1 RS,2RS)-2,4-DIMETHYL-3-CYCLOHEXENE-1-CARBALDEHYDE (A) + (1 RS,2SR)-2,4-DIMETHYL-3-CYCLOHEXENE-1-CARBALDEHYDE (B)",>−4,>−4,–,–
"(2RS,4SR)-4-METHYL-2-(2-METHYL-1-PROPEN-1-YL)TETRAHYDRO-2H-PYRAN (A) + (2RS,4RS)-4-METHYL-2-(2-METHYL-1-PROPEN-1-YL)TETRAHYDRO-2H-PYRAN (B)",–,>−4,>−4,–
"(2Z)-1,1-DIETHOXY-3,7-DIMETHYL-2,6-OCTADIENE (A) + (2E)-1,1-DIETHOXY-3,7-DIMETHYL-2,6-OCTADIENE (B)",–,–,>−4,>−4
(+)-(3S)-3-[(1R)-4-METHYL-3-CYCLOHEXEN-1-YL]BUTANAL (A) + (+)-(3R)-3-[(1R)-4-METHYL-3-CYCLOHEXEN-1-YL]BUTANAL,–,–,–,>−4
"(+−)-4-METHYLENE-2-PHENYLTETRAHYDRO-2H-PYRAN (A) + (+−)-4-METHYL-6-PHENYL-3,6-DIHYDRO-2H-PYRAN (B) + (+−)-4-METHYL-2-PHENYL-3,6-DIHYDRO-2H-PYRAN (C)",–,–,<−4,<−4
"(+−)-(3E)-3-METHYL-4-(2,6,6-TRIMETHYL-2-CYCLOHEXEN-1-YL)-3-BUTEN-2-ONE (A) + (+−)-(1E)-1-(2,6,6-TRIMETHYL-2-CYCLOHEXEN-1-YL)-1-PENTEN-3-ONE (B)",<−4,–,–,–
.ALPHA.-DIHYDROTERPINEOL (A) + .BETA.-DIHYDROTERPINEOL (B),–,–,>−4,–
"TRICYCLO[5.2.1.0~2,6~]DEC-3-EN-8-YL ACETATE (A) + TRICYCLO[5.2.1.0~2,6~]DEC-4-EN-8-YL ACETATE (B)",–,>−4,>−4,–
